Experimental findings from ChEMBL document CHEMBL5338724, “METTL3 from Target Validation to the First Small-Molecule Inhibitors: A Medicinal Chemistry Journey” (J Med Chem, 2023) are described below.

The target of experiment [1] is T1, METTL3/METTL14 (Homo sapiens, UniProt Q86U44). Briefly: Inhibition of METTL3/METTL14 (unknown origin) by bioluminescence assay. The format is protein-complex assay.
Experiment [2] deals with Histone-lysine N-methyltransferase 2B (Homo sapiens) (UniProt Q9UMN6). Kind of experiment: Inhibition of MLL4 (unknown origin) at 10 uM relative to control.
In experiment [3] the target is Histone-lysine N-methyltransferase PRDM9 (Homo sapiens) (UniProt Q9NQV7). Kind of experiment: Inhibition of PRDM9 (unknown origin) at 10 uM relative to control.
For experiment [4], the target named is N6-adenosine-methyltransferase catalytic subunit (Homo sapiens, UniProt Q86U44).
Description: Binding affinity to METTL3 (unknown origin) assessed as dissociation constant by SPR analysis
The target in experiment [5] is T1, METTL3/METTL14. Kind of experiment: Inhibition of METTL3/METTL14 (unknown origin) using RNA 5'-GGACUGGACUGGACU-3' as substrate incubated for 2 hrs by LC-MS/MS analysis. The format is protein-complex assay.
A further experiment relates to MIA PaCa-2. Briefly: cells. The following applies: Homo sapiens, MIA PaCa-2, 72 h.
In another experiment the test system is Huh-7. Briefly: cells. The following applies: Homo sapiens, Huh-7, 72 h.

T1 sequence (Q86U44 whole entry): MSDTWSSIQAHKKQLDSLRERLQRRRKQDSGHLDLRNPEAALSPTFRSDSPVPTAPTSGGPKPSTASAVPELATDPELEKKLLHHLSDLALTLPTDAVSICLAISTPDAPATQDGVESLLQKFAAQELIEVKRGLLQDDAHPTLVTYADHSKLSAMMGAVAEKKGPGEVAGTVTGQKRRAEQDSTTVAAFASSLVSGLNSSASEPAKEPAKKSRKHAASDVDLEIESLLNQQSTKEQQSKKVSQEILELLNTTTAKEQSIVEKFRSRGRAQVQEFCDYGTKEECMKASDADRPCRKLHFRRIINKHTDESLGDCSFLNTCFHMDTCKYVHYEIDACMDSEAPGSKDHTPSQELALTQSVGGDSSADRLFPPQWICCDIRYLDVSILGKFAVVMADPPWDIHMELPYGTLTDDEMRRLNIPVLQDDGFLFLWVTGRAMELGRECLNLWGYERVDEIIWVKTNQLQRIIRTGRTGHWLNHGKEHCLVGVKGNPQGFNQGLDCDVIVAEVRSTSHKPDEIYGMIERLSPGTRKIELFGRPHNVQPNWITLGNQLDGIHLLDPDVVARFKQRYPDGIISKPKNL
T1 sequence (Q9HCE5 whole entry, further chain): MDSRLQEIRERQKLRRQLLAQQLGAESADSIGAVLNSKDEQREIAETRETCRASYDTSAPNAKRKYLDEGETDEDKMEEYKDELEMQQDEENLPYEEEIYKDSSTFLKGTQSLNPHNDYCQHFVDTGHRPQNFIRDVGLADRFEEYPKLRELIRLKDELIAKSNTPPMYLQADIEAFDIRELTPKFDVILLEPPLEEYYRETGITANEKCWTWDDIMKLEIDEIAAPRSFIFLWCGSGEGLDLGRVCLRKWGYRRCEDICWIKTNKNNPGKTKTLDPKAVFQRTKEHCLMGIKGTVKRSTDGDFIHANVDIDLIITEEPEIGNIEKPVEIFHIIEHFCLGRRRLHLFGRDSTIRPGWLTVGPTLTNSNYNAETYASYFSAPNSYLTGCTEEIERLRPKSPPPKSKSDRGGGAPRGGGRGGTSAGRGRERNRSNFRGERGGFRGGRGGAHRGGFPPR
Sequence of N6-adenosine-methyltransferase catalytic subunit (Q86U44 whole entry): as the sequence (Q86U44 whole entry) above
Sequence of Histone-lysine N-methyltransferase 2B (Homo sapiens) (Q9UMN6 whole entry): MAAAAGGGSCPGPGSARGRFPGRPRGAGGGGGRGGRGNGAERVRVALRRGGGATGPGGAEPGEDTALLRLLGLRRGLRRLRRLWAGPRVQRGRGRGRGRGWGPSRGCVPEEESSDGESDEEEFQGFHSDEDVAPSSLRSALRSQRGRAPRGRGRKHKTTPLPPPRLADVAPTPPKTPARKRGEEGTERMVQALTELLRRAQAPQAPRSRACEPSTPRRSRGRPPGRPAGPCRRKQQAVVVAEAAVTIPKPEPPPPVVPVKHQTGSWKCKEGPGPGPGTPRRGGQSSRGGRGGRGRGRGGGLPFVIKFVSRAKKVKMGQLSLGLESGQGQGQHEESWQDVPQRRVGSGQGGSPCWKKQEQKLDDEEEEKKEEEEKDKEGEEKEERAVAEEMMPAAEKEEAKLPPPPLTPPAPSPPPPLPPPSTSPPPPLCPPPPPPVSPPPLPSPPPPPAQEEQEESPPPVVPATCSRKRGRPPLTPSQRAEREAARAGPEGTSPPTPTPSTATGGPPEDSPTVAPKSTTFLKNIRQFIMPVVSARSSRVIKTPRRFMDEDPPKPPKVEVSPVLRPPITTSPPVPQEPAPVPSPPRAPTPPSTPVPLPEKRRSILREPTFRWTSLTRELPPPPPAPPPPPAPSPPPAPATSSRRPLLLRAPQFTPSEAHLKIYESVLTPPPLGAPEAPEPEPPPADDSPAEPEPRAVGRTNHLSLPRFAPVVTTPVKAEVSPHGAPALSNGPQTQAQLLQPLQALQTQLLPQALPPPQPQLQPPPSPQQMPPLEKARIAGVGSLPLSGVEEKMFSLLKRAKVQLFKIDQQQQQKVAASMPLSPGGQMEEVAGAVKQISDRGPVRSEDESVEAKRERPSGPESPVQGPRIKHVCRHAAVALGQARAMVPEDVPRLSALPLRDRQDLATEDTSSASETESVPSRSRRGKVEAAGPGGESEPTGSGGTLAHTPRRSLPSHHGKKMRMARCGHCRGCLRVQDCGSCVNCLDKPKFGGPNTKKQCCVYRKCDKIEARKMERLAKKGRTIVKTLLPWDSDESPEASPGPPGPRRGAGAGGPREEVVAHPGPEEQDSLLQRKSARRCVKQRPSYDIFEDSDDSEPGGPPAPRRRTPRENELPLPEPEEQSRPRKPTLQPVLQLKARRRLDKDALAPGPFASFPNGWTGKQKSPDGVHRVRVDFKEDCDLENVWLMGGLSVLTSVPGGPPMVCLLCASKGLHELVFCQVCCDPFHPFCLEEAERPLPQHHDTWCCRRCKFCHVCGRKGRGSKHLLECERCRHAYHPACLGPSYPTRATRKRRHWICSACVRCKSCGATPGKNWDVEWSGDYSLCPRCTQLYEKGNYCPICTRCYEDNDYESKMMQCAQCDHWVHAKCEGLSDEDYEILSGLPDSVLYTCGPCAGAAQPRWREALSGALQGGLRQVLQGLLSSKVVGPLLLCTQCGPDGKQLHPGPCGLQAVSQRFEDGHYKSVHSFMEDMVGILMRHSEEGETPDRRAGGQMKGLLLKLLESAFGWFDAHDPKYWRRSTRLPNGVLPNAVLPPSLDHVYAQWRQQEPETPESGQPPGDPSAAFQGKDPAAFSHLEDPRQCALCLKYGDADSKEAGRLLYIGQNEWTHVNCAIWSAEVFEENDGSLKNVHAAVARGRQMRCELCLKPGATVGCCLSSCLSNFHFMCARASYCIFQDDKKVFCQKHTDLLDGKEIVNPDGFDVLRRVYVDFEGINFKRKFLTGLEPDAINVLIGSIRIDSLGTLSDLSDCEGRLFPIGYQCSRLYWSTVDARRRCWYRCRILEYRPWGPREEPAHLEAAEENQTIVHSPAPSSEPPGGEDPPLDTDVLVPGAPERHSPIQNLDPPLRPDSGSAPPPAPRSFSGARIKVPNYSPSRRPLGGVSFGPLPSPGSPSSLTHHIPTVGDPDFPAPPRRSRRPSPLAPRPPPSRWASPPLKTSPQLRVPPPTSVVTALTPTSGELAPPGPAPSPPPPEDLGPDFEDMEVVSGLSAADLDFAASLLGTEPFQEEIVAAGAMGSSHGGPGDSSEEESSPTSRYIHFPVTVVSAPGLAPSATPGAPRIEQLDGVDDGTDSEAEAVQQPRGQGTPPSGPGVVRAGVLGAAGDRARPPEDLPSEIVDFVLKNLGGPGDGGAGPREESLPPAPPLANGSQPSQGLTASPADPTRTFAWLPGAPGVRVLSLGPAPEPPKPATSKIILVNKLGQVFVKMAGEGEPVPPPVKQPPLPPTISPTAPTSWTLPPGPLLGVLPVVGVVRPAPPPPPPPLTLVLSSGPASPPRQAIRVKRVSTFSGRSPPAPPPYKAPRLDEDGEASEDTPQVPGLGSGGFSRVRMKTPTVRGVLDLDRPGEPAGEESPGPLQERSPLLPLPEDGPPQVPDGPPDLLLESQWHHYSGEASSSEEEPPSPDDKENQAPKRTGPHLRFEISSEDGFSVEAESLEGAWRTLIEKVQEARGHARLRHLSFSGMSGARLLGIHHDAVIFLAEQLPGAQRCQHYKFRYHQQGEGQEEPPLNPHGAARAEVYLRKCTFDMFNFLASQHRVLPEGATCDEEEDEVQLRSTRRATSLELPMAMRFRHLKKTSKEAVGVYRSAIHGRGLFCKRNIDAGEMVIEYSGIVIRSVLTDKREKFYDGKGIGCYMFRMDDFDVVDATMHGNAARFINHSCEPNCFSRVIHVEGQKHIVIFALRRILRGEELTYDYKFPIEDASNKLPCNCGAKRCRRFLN
Sequence of Histone-lysine N-methyltransferase PRDM9 (Homo sapiens) (Q9NQV7 whole entry): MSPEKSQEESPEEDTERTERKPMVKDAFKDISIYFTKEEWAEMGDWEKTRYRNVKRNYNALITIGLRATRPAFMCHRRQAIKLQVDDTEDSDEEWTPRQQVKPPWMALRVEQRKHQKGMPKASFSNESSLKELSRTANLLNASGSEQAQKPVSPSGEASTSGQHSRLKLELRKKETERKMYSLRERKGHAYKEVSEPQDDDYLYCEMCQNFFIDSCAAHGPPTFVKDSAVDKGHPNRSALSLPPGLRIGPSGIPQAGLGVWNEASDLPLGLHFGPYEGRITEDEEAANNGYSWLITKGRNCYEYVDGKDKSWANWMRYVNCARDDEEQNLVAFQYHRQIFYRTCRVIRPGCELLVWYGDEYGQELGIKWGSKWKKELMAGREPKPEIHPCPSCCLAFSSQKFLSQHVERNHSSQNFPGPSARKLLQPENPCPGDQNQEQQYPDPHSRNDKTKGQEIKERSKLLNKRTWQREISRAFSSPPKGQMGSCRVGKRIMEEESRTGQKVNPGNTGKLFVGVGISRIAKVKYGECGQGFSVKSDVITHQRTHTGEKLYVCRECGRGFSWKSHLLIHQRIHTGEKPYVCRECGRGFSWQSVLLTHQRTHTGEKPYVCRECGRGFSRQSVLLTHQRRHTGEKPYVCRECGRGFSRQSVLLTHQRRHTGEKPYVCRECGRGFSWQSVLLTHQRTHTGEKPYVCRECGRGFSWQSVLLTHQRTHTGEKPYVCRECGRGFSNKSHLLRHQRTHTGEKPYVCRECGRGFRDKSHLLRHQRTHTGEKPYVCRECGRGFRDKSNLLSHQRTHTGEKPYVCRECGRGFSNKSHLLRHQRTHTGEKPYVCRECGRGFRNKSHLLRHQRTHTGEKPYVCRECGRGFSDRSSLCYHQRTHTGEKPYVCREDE
Description for Huh-7: Antiproliferative activity against human Huh-7 cells assessed as reduction in cell viability incubated for 72 hrs by CCK-8 assay
Description for MIA PaCa-2: Antiproliferative activity against human MIA PaCa-2 cells assessed as reduction in cell viability incubated for 72 hrs by CCK-8 assay

For the compound `CC1=NN(c2ccc(C)c(C)c2)C(=O)/C1=N\Nc1cccc(-c2cccc(C(=O)O)c2)c1O` [ELTROMBOPAG], at METTL3/METTL14 [1], it took 3.65 µM to reach half-maximal inhibition (IC50). In addition, the figures for the inhibition in experiment [2] and in experiment [3] were 29% and 30%, respectively.
With `COc1cc2c(cc1Cc1cccc(Cl)c1F)c(=O)c(C(=O)O)cn2[C@H](CO)C(C)C`, the Kd – broadly, the concentration at which binding is half-saturated – in experiment [4] turned out to be 0.00479 µM.
With `O=c1c(O)c(-c2ccc(O)c(O)c2)oc2cc(O)cc(O)c12` [QUERCETIN], the concentration for half-maximal inhibition (IC50) (commonly the midpoint of a concentration-inhibition curve) was found to be 2.73 µM against METTL3/METTL14 [5], 73.5 µM in the experiment on MIA PaCa-2 and 100 µM in the experiment with Huh-7.
